Assay results: US20220380378A1 (ESSA Pharma, Inc., priority 2021, published 2022)
Read-outs that look alike come from different tables or passages of the source.

Key:
[1] = Microsomal stability assay, liver microsome half-life (rat); assay type: in vitro ADME; conditions: pH 7.4; rat liver microsomes 0.5 mg/mL, 1 μM compound, 37° C.; read-out: Liver microsome T1/2 Rat
Source text: (§1) Microsomal Stability Assay: Microsomal stability assay is a widely used in vitro model to characterize the metabolic conversion by phase I enzymes, such as cytochrome P450 (CYP) enzymes. Since metabolism is known to be highly variable in different species, microsomal stability assay is commonly run in multiple species. Metabolic stability of testing compound can be evaluated using human, rat, mouse, or other animal liver or intestine microsomes to predict intrinsic clearance.
(§2) The assay was carried out in 96-well microtiter plates at 37° C. Reaction mixtures (25 μL) contained a final concentration of 1 μM test compound, 0.5 mg/mL liver microsomes protein, and 1 mM NADPH and/or 1 mM UDPGA (with alamethicin) in 100 mM potassium phosphate, pH 7.4 buffer with 3 mM MgCl2. The incubation was done with N=1, but duplicate incubation at each time point can be prepared if necessary. At each of the time points (for example, 0, 15, 30, and 60 minutes), 150 μL of quench solution (100% acetonitrile with 0.1% formic acid) with internal standard was transferred to each well. Besides the zero minute controls, mixtures containing the same components except the NADPH can also be prepared as the negative control. Verapamil was included as a positive control to verify assay performance. Plates were sealed, vortexed, and centrifuged at 4° C. for 15 minutes at 4000 rpm. The supernatant is transferred to fresh plates for LC/MS/MS analysis.
(§3) Summarized conditions: [Compound]=1 μM, [LM]=0.5 mg/mL, [NADPH]=1 mM and/or [UDPGA]=1 mM, Buffer=100 mM Potassium Phosphate, pH 7.4 with 3 mM MgCl2, Time=0, 15, 30, and 60 min, and Temperature=37° C.
(§4) All samples were analyzed on LC/MS/MS using an AB Sciex API 4000 instrument, coupled to a Shimadzu LC-20AD LC Pump system. Analytical samples were separated using a Waters Atlantis T3 dC18 reverse phase HPLC column (20 mm×2.1 mm) at a flow rate of 0.5 mL/min. The mobile phase consisted of 0.1% formic acid in water (solvent A) and 0.1% formic acid in 100% acetonitrile (solvent B).
(§5) The extent of metabolism is calculated as the disappearance of the test compound, compared to the 0-min time incubation. Initial rates are calculated for the compound concentration and used to determine half-life (t½). […]

[2] = Microsomal stability assay, liver microsome half-life (dog); assay type: in vitro ADME; conditions: pH 7.4; dog liver microsomes 0.5 mg/mL, 1 μM compound, 37° C.; read-out: Liver microsome T1/2 Dog
Source text: as §1, §2, §3, §4
(§6) The extent of metabolism is calculated as the disappearance of the test compound, compared to the 0-min time incubation. Initial rates are calculated for the compound concentration and used to determine half-life (t½).

[3] = Microsomal stability assay, liver microsome half-life (mouse); assay type: in vitro ADME; conditions: pH 7.4; mouse liver microsomes 0.5 mg/mL, 1 μM compound, 37° C.; read-out: Liver microsome T1/2 Mouse
Source text: as §1, §2, §3, §4, §5

androgen receptor (AR) [4] = molecular target: T1, androgen receptor (AR) (Homo sapiens, UniProt P10275, T878A); experiment: Androgen-induced PSA (6.1 kb)-luciferase reporter assay in LNCaP cells (R1881 1 nM); assay type: cell-based; set-up: endogenous in cells; host or cells: LNCaP; conditions: 24 h, read-out: PSA-Luc IC50 Range
T1 sequence (P10275 1-920 T878A): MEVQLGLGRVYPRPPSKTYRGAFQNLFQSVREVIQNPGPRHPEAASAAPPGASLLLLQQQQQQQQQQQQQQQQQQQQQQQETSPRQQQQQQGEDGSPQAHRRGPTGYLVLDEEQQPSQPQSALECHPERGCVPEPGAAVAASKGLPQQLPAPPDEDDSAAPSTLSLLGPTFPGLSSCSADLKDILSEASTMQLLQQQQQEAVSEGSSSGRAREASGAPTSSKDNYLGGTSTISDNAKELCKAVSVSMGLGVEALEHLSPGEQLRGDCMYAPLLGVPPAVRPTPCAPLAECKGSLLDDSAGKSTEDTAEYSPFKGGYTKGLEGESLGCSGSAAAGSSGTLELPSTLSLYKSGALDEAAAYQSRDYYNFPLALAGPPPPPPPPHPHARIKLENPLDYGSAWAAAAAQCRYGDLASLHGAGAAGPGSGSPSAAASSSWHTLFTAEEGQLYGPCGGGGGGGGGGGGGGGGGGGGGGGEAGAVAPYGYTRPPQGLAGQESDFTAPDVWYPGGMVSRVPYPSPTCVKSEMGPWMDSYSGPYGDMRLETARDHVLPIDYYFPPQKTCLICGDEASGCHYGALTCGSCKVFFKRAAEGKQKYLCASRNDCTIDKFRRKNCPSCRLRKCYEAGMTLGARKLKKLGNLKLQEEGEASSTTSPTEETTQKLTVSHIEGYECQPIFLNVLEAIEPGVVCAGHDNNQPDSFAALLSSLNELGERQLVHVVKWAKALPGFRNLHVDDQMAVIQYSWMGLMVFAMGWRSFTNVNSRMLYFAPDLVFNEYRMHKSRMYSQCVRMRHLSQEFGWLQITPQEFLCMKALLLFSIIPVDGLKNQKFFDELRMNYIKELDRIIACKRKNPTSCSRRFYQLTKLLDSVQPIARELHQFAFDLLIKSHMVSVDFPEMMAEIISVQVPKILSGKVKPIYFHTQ
Summary of the method: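 LNCaP cells transiently transfected with PSA (6.1 kb)-luciferase for 24 h, pretreated 1 h with compound or DMSO, then stimulated with 1 nM R1881 for 24 h. Firefly luciferase in lysates normalized to protein content; IC50 relative to R1881-induced vehicle activity.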

[5] = Microsomal stability assay, liver microsome half-life (human); assay type: in vitro ADME; conditions: pH 7.4; human liver microsomes 0.5 mg/mL, 1 μM compound, 37° C.; read-out: Liver microsome T1/2 Human
Source text: as §1, §2, §3, §4, §5

[6] = Microsomal stability assay, liver microsome half-life (monkey); assay type: in vitro ADME; conditions: pH 7.4; monkey liver microsomes 0.5 mg/mL, 1 μM compound, 37° C.; read-out: Liver microsome T1/2 Monkey
Source text: as §1, §2, §3, §4, §6

androgen receptor (AR) [7] = molecular target: T1, androgen receptor (AR); experiment: Androgen-induced PSA (6.1 kb)-luciferase reporter assay in LNCaP cells (R1881 1 nM); assay type: cell-based; set-up: LNCaP cells were transiently transfected with the PSA (6.1 kb)-luciferase reporter for 24 h; endogenous in cells; host or cells: LNCaP; conditions: 24 h, read-out: PSA-Luc IC50 Range
Procedure: The PSA (6.1 kb)-luciferase reporter contains functional AREs (androgen response elements) to which AR binds in response to androgen to induce luciferase activity. LNCaP cells were transiently transfected with the PSA (6.1 kb)-luciferase reporter for 24 h, and then pretreated with vehicle (DMSO) or indicated concentration of representative compounds for one hour prior to the addition of synthetic androgen, R1881 (1 nM). After 24 h of incubation with R1881, the cells were harvested, and relative luciferase activities were determined (FIG. 1). To determine the IC50, treatments were normalized to vehicle control activity induced by R1881 (Table 2).
Luciferase Assay: Cells were lysed using Passive Lysis Buffer (Promega) and then collected into V-bottom 96-well tissue culture plates. Lysates were centrifuged at 4° C. for 5 minutes at 3000 rpm. To measure luminescence of LNCaP cell lysates the Firefly Luciferase Assay System (Promega) was employed, according to manufacturer's protocol. Relative luminescence units (RLU) in cell lysates were detected for 10 seconds using Promega GloMax-Multi Detection Luminometer (Promega). Values were normalized to protein content. GraphPad Prism graphing software was used to calculate IC50 values.
Statistical analyses were performed using GraphPad Prism (Version 6.01 for Windows; La Jolla, Calif., USA). […]

## CC(C)(c1ccc(OCc2ccnc(NS(C)(=O)=O)c2F)cc1)c1cc(Cl)c(OCCCl)c(C#N)c1 [Compound A48]
[1]
  half-life at 1 μM: > 2 h
[2]
  half-life at 1 μM: > 2 h
[3]
  half-life at 1 μM: > 2 h
Androgen receptor (AR) [4]
  IC50: 500 to 2000 nM
[5]
  half-life at 1 μM: > 2 h
[6]
  half-life at 1 μM: > 2 h

## CS(=O)(=O)Nc1nccc(COc2ccc3c(ncn3-c3cc(Cl)c(OCCCl)c(C#N)c3)c2Cl)n1 [Compound A46]
Androgen receptor (AR) [7]
  IC50: < 500 nM

## CC(C)(c1ccc(OCc2ccnc(NS(C)(=O)=O)n2)cc1)c1cc(F)c(N2CCOCC2)c(C#N)c1 [Compound A262]
[1]
  half-life at 1 μM: 1.63 h
[2]
  half-life at 1 μM: > 2 h
[3]
  half-life at 1 μM: > 2 h
Androgen receptor (AR) [4]
  IC50: 500 to 2000 nM
[5]
  half-life at 1 μM: > 2 h
[6]
  half-life at 1 μM: 0.85 h

## CS(=O)(=O)N1CC(COc2ccc3c(ccn3-c3cc(Cl)c(OCCCl)c(C#N)c3)c2)C1 [Compound A59]
[1]
  half-life at 1 μM: > 2 h
[2]
  half-life at 1 μM: 0.967 h
[3]
  half-life at 1 μM: > 2 h
Androgen receptor (AR) [4]
  IC50: < 500 nM
[5]
  half-life at 1 μM: 0.183 h
[6]
  half-life at 1 μM: 0.117 h

## CS(=O)(=O)Nc1ncc(Cn2ncc3c(-c4cc(Cl)c(OCCCl)c(C#N)c4)cccc32)cn1 [Compound A144]
[1]
  half-life at 1 μM: > 2 h
[2]
  half-life at 1 μM: > 2 h
[3]
  half-life at 1 μM: > 2 h
Androgen receptor (AR) [4]
  IC50: 500 to 2000 nM
[5]
  half-life at 1 μM: > 2 h
[6]
  half-life at 1 μM: > 2 h

## CS(=O)(=O)NC1CCN(Cc2ccc3c(ccn3-c3cc(Cl)c(OCCCl)c(C#N)c3)c2)CC1 [Compound A169]
[1]
  half-life at 1 μM: > 2 h
[2]
  half-life at 1 μM: > 2 h
[3]
  half-life at 1 μM: > 2 h
Androgen receptor (AR) [4]
  IC50: > 2000 nM
[5]
  half-life at 1 μM: > 2 h
[6]
  half-life at 1 μM: > 2 h

## CS(=O)(=O)NC1CN(CCc2ccc3c(ccn3-c3cc(Cl)c(OCCCl)c(C#N)c3)c2)C1 [Compound A126, N-(1-(2-(1-(3-chloro-4-(2-chloroethoxy)-5-cyanophenyl)-1H-indol-5-yl)ethyl)azetidin-3-yl)methanesulfonamide]
[1]
  half-life at 1 μM: 0.95 h
[2]
  half-life at 1 μM: 0.733 h
[3]
  half-life at 1 μM: > 2 h
Androgen receptor (AR) [4]
  IC50: 500 to 2000 nM
[5]
  half-life at 1 μM: > 2 h
[6]
  half-life at 1 μM: 0.583 h

## COc1c(Cl)cc(C(C)(C)c2ccc(-c3ccc4nc(NS(C)(=O)=O)cnc4c3)cc2)cc1C#N [Compound A269]
[1]
  half-life at 1 μM: > 2 h
[2]
  half-life at 1 μM: 1.32 h
[3]
  half-life at 1 μM: > 2 h
Androgen receptor (AR) [4]
  IC50: > 2000 nM
[5]
  half-life at 1 μM: > 2 h
[6]
  half-life at 1 μM: > 2 h

## CS(=O)(=O)N[C@H]1C[C@H](COc2ccc3c(ccn3-c3cc(Cl)c(OCCCl)c(C#N)c3)c2)C1 [Compound A135]
[1]
  half-life at 1 μM: > 2 h
[2]
  half-life at 1 μM: > 2 h
[3]
  half-life at 1 μM: 1.97 h
Androgen receptor (AR) [4]
  IC50: 500 to 2000 nM
[5]
  half-life at 1 μM: > 2 h
[6]
  half-life at 1 μM: 0.733 h

## CC(C)(c1ccc(-c2ccc3nc(NS(C)(=O)=O)ccc3n2)cc1)c1cc(Cl)c(OCCCl)c(C#N)c1 [Compound A191]
[1]
  half-life at 1 μM: > 2 h
[2]
  half-life at 1 μM: > 2 h
[3]
  half-life at 1 μM: > 2 h
Androgen receptor (AR) [4]
  IC50: < 500 nM
[5]
  half-life at 1 μM: > 2 h
[6]
  half-life at 1 μM: > 2 h

## CC(C)(c1ccc(OCc2cnc(NS(C)(=O)=O)nc2N2CCOCC2)cc1)c1cc(Cl)c(OCCCl)c(C#N)c1 [Compound A100]
[1]
  half-life at 1 μM: 0.85 h
[2]
  half-life at 1 μM: > 2 h
[3]
  half-life at 1 μM: 1.6 h
Androgen receptor (AR) [4]
  IC50: < 500 nM
[5]
  half-life at 1 μM: > 2 h
[6]
  half-life at 1 μM: 0.633 h
